Results: patent US20230365556A1, “N-ACYL AMINO ACID COMPOUNDS AND METHODS OF USE” (Pliant Therapeutics, Inc., priority 2016, published 2023)

Molecular target: αvβ1 integrin (αvβ1 expressing CHO cells) (Homo sapiens (Human), UniProt P05556+P06756)
Test: Cell adhesion assay: inhibition of αvβ1 expressing CHO cells attaching to TGFβ1LAP
Type: cell-based
Details: 1 h at 37° C., crystal violet absorbance 595 nm, read-out: αvβ1 Inhibition IC50 (nM)-range
How it was run: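 Plates coated with 2 ug/ml TGFβ1LAP and blocked with 2% BSA; cells (1.0×10^6 cells/ml in DMEM) incubated with compound 1 hour at 37° C. Non-adherent cells removed by centrifugation; adherent cells stained with crystal violet, absorbance 595 nm, IC50 by four-parameter non-linear regression.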

Sequence of αvβ1 integrin (αvβ1 expressing CHO cells) (P06756 31-889): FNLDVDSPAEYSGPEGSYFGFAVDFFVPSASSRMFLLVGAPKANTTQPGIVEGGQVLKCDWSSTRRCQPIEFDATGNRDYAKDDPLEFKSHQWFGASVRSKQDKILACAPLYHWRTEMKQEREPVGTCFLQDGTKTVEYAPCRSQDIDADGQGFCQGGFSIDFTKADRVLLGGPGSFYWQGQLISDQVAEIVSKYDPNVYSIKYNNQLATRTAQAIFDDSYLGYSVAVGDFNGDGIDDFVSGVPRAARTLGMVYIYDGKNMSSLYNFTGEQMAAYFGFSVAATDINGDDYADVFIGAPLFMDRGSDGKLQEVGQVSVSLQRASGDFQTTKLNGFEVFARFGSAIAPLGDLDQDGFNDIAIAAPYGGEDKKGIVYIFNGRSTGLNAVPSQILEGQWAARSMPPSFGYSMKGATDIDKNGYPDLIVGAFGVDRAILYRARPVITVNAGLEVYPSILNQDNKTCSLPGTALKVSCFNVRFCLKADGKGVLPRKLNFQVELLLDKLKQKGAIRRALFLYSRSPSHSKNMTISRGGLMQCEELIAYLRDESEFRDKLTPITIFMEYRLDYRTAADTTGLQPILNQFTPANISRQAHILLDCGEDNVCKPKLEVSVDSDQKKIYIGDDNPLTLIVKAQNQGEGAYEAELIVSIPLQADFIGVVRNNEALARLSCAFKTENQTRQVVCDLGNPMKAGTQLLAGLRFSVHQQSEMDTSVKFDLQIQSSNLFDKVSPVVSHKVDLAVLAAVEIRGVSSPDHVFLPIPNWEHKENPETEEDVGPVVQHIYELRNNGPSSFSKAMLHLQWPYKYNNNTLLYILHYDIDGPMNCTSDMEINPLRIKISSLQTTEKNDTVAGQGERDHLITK
Sequence of αvβ1 integrin (αvβ1 expressing CHO cells) (P06756 891-1048 partner): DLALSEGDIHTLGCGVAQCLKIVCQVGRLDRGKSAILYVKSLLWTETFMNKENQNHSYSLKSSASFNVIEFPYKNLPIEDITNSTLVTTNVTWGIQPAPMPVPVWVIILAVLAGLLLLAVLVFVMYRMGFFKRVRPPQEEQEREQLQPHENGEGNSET
Sequence of αvβ1 integrin (αvβ1 expressing CHO cells) (P05556 21-798): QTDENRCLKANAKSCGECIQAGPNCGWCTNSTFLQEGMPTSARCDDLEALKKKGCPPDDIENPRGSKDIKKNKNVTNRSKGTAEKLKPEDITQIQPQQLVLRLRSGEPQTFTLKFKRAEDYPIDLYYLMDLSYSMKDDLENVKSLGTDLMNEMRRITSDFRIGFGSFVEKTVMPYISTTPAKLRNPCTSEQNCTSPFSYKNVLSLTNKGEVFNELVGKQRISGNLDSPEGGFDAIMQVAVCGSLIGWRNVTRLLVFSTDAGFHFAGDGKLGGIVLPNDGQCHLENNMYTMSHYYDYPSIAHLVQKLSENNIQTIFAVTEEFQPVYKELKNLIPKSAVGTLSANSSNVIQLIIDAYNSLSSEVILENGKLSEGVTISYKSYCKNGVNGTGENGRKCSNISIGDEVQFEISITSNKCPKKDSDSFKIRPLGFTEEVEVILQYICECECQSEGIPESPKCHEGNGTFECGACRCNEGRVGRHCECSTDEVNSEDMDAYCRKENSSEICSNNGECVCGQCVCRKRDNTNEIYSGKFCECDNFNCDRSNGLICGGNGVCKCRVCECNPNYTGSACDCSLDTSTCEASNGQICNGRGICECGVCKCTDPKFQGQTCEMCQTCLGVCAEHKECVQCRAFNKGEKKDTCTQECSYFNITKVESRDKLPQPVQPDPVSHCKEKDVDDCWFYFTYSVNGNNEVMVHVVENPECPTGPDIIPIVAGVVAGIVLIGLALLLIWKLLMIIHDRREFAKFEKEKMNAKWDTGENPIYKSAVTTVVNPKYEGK

IC50, < 50 nM:
O=C(N[C@@H](Cc1ccc(OCCCc2ccc3c(n2)NCCC3)cc1)C(=O)O)c1c(Cl)cccc1Cl [Example 16, (S)-2-(2,6-dichlorobenzamido)-3-(4-(3-(5,6,7,8-tetrahydro-1,8-naphthyridin-2-yl)propoxy)phenyl)propanoic acid]
O=C(N[C@@H](Cc1ccc(OCCCc2ccc3c(n2)NCCC3)cc1)C(=O)O)c1cc(F)ccc1Cl [Example 36, (2S)-2-[(2-chloro-5-fluoro-benzoyl)amino]-3-[4-[3-(5,6,7,8-tetrahydro-1,8-naphthyridin-2-yl)propoxy]phenyl]propanoic acid]
CC(OCCc1ccc2c(n1)NCCC2)c1ccc(C[C@H](NC(=O)c2c(Cl)cccc2Cl)C(=O)O)cc1 (stereo partly drawn) [Example 33, (2S)-2-(2,6-dichlorobenzamido)-3-(4-(1-(2-(5,6,7,8-tetrahydro-1,8-naphthyridin-2-yl)ethoxy)ethyl)phenyl)propanoic acid]

IC50, 250 to 1000 nM:
O=C(N[C@@H](CCCCCCCCNC1=NCCCS1)C(=O)O)c1c(Cl)cccc1Cl [Example 54, (S)-2-(2,6-dichlorobenzamido)-10-((5,6-dihydro-4H-1,3-thiazin-2-yl)amino)decanoic acid]
O=C(N[C@@H](CCCCCCCc1ccc2c(n1)NCCC2)C(=O)O)c1ccc2cnn(C(F)F)c2c1 [Compound 105]

IC50, 50 to 250 nM:
Cn1ncc2ccc(C(=O)NC(CCCCCCCc3ccc4c(n3)NCCC4)C(=O)O)cc21 (stereo not shown) [Compound 81, 2-(1-methyl-1H-indazole-6-carboxamido)-9-(5,6,7,8-tetrahydro-1,8-naphthyridin-2-yl)nonanoic acid]
O=C(N[C@@H](CCCCCCCCNC1=NCCS1)C(=O)O)c1c(Cl)cccc1Cl [Example 49, (S)-2-(2,6-dichlorobenzamido)-10-((4,5-dihydrothiazol-2-yl)amino)decanoic acid]
Cn1cnc2cc(C(=O)N[C@@H](Cc3ccc(OCCCc4ccc5c(n4)NCCC5)cc3)C(=O)O)ccc21 [Example 9, (S)-2-(1-methyl-1H-benzo[d]imidazole-5-carboxamido)-3-(4-(3-(5,6,7,8-tetrahydro-1,8-naphthyridin-2-yl)propoxy)phenyl)propanoic acid]

Molecular target: recombinant human integrin αvβ1 (Homo sapiens (Human), UniProt P05556+P06756)
Test: Solid phase integrin αvβ1 binding assay (fibronectin)
Details: recombinant human integrin αvβ1 coated plate, recombinant fibronectin 2 ug/ml, 2 hours at 25° C., read-out: αvβ1 Inhibition IC50 (nM)-range
Protocol: Example B2—Solid Phase Integrin αvβ1 Binding Assay
Microplates were coated with recombinant human integrin αvβ1 (2 ug/ml) in PBS (100 ul/well 4° C., overnight). The coating solution was removed, washed with PBS. Plate was blocked with 200 ul/well of Block Buffer (2% BSA in PBS) at 37° C. for 1 h. Dilutions of testing compounds and recombinant fibronectin (2 ug/ml) in binding and washing buffer (50 mM Tris-HCl, ph7.5; 0.1% BSA, 1 mM MnCl2; NaCl 150 mM; 0.02% Tween-20; 1 mM CaCl2); 1 mM MgCl2) were added. The plate was incubated for 2 hours at 25° C., washed, and incubated for 1 hour with Biotin-Anti-fibronectin. Bound antibody was detected by peroxidase-conjugated streptavidin. The IC50 values for testing compounds were calculated by a four-parameter logistic regression.
The compounds tested were compound samples prepared according to procedures described in the Synthetic Examples section, with the stereochemical purity as indicated in the Examples. The compounds tested were predominantly S-configuration at the alpha carbon of the amino acid scaffold, except for compounds 123, 124, and 125 which were predominantly R-configuration at the alpha carbon of the amino acid scaffold.

Sequence of recombinant human integrin αvβ1 (P06756 31-889): as the sequence (P06756 31-889) above
Sequence of recombinant human integrin αvβ1 (P06756 891-992 partner): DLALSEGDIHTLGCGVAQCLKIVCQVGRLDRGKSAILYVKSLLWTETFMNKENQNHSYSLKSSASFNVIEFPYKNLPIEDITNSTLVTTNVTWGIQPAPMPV
Sequence of recombinant human integrin αvβ1 (P05556 21-728): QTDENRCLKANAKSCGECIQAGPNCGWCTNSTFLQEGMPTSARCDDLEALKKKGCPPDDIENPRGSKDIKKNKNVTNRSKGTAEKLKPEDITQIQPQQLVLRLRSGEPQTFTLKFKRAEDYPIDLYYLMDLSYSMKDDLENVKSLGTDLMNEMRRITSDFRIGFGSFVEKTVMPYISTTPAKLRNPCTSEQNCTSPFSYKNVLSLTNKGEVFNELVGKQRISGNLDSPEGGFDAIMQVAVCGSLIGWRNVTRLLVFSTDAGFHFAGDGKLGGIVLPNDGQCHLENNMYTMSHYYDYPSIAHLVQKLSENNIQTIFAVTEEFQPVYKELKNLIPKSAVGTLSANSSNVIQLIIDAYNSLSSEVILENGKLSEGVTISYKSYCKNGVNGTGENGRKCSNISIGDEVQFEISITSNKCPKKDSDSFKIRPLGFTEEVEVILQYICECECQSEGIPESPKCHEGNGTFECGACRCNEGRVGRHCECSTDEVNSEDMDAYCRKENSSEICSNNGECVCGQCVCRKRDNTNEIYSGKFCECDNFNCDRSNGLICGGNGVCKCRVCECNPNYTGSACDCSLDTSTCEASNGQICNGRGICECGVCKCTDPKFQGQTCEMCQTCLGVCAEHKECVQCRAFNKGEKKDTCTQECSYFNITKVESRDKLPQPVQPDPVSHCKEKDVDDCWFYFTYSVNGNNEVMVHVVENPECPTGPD

IC50, 250 to 1000 nM:
O=C(NC(CN1CCC(OCCCc2ccc3c(n2)NCCC3)C1)C(=O)O)c1c(Cl)cccc1Cl (stereo not shown) [Compound 75, 2-(2,6-dichlorobenzamido)-3-(3-(3-(5,6,7,8-tetrahydro-1,8-naphthyridin-2-yl)propoxy)pyrrolidin-1-yl)propanoic acid]

IC50, > 1000 nM:
Cn1cc(-c2cccc(C(=O)N[C@H](CCCCCCCc3ccc4c(n3)NCCC4)C(=O)O)c2)cn1 [Compound 123]
O=C(N[C@H](CCCCCCCc1ccc2c(n1)NCCC2)C(=O)O)c1cc(F)cc(C(F)(F)F)c1 [Compound 125]
O=C(N[C@H](CCCCCCCc1ccc2c(n1)NCCC2)C(=O)O)c1cccc(-c2cncs2)c1 [Compound 124]

IC50, 50 to 250 nM:
O=C(N[C@@H](CCCCCCCc1ccc2c(n1)NCCC2)C(=O)O)c1cccc(-c2cncs2)c1 [Compound 126]

IC50, < 50 nM:
O=C(N[C@@H](CCCCCCCc1ccc2c(n1)NCCC2)C(=O)O)c1cccc(F)c1Cl [Compound 121]
N#Cc1ccc(C(=O)NC(CCCCCCCc2ccc3c(n2)NCCC3)C(=O)O)cc1 (stereo not shown) [Compound 90]
O=C(NC(CCCCCCCc1ccc2c(n1)NCCC2)C(=O)O)c1ccc(Cl)cc1 (stereo not shown) [Compound 87]
Cn1ncc2ccc(C(=O)NC(CCCCCCCc3ccc4c(n3)NCCC4)C(=O)O)cc21 (stereo not shown) [Compound 81, 2-(1-methyl-1H-indazole-6-carboxamido)-9-(5,6,7,8-tetrahydro-1,8-naphthyridin-2-yl)nonanoic acid]
Cc1cc(C)n(-c2cccc(C(=O)N[C@@H](CCCCCCCc3ccc4c(n3)NCCC4)C(=O)O)c2)n1 [Compound 119]
O=C(NC(CCCCCCCc1ccc2c(n1)NCCC2)C(=O)O)c1ccc(F)cc1 (stereo not shown) [Compound 88]
COc1cccc(C(=O)NC(CCCCCCCc2ccc3c(n2)NCCC3)C(=O)O)c1 (stereo not shown) [Compound 93]
O=C(NC(CCCCCCCc1ccc2c(n1)NCCC2)C(=O)O)c1cccc(Cl)c1 (stereo not shown) [Compound 91]
COc1ccc(C(=O)NC(CCCCCCCc2ccc3c(n2)NCCC3)C(=O)O)cc1 (stereo not shown) [Compound 89]
O=C(N[C@@H](CCCCCCCc1ccc2c(n1)NCCC2)C(=O)O)c1cc(OC(F)(F)F)ccc1Cl [Compound 118]
N#Cc1cccc(C(=O)NC(CCCCCCCc2ccc3c(n2)NCCC3)C(=O)O)c1 (stereo not shown) [Compound 94]
O=C(NC(CCCCCCCc1ccc2c(n1)NCCC2)C(=O)O)c1cccc(F)c1 (stereo not shown) [Compound 92]
CC(C)Oc1ccc(C(=O)N[C@@H](CCCCCCCc2ccc3c(n2)NCCC3)C(=O)O)c(Cl)c1 [Compound 117]
O=C(N[C@@H](CCCCCCCc1ccc2c(n1)NCCC2)C(=O)O)c1cc(F)cc(C(F)(F)F)c1 [Compound 122]
O=C(O)C(CCCCCCCc1ccc2c(n1)NCCC2)NC(=O)N1CCn2c(nnc2C(F)(F)F)C1 (stereo not shown) [Compound 97]
O=C(NC(CCCCCCCc1ccc2c(n1)NCCC2)C(=O)O)c1ccccc1Cl (stereo not shown) [Compound 96]
O=C(NC(CCCCCCCc1ccc2c(n1)NCCC2)C(=O)O)c1c(Cl)cccc1Cl (stereo not shown) [Compound 65, 2-(2,6-dichlorobenzamido)-9-(5,6,7,8-tetrahydro-1,8-naphthyridin-2-yl)nonanoic acid]
O=C(NC(CCCCCCCc1ccc2c(n1)NCCC2)C(=O)O)c1ccccc1F (stereo not shown) [Compound 95]
